Data from ChEMBL document CHEMBL1156867, “Improved synthesis of a fluorogenic ceramidase substrate” (Bioorg Med Chem, 2010).
Calls of active or inactive are those of the source. No cut-off for these calls is given here.

Columns and labels:
[1] = Inhibition of ceramidase in human SKOV3 cells assessed as hydrolysis of N-((2S,3R)-1,3-dihydroxy-5-((2-oxo-2H-chromen-7-yl)oxy)pentan-2-yl)palmitamide at 16 uM after 24 hrs at 37 degC by umbelliferone formation based fluorescence intensity assay; type: cell-based, SK-OV-3
[2] = Inhibition of pig liver ceramidase assessed as hydrolysis of N-((2S,3R)-1,3-dihydroxy-5-((2-oxo-2H-chromen-7-yl)oxy)pentan-2-yl)palmitamide; set-up: species or system Sus scrofa
[3] = Inhibition of rat liver ceramidase assessed as hydrolysis of N-((2S,3R)-1,3-dihydroxy-5-((2-oxo-2H-chromen-7-yl)oxy)pentan-2-yl)palmitamide
[4] = Inhibition of ceramidase in human SKOV3 cells assessed as hydrolysis of N-((2S,3R)-1,3-dihydroxy-5-((2-oxo-2H-chromen-7-yl)oxy)pentan-2-yl)palmitamide at 16 uM after 24 hrs at 37 degC by HPLC; type: cell-based; conditions: sk-ov-3
SK-OV-3 [5] = experiment: Activity of ceramidase in human SKOV3 cells assessed as formation of 7-(((3R,4S)-4-amino-3,5- dihydroxypentyl)oxy)-2H-chromen-2-one at 16 uM after 24 hrs at 37 degC by HPLC; type: cell-based
SK-OV-3 [6] = experiment: Activity of ceramidase in human SKOV3 cells assessed as formation of 7-(((3R,4S)-4-amino-3,5- dihydroxypentyl)oxy)-2H-chromen-2-one at 16 uM after 1 to 24 hrs at 37 degC by HPLC; type: cell-based; conditions: TDE = time-dependent effect
SK-OV-3 [7] = experiment: Activity of ceramidase in human SKOV3 cells assessed as formation of 7-(((3R,4S)-4-amino-3,5- dihydroxypentyl)oxy)-2H-chromen-2-one at 16 uM after 1 to 24 hrs at 37 degC by umbelliferone formation based fluorescence intensity assay; type: cell-based; conditions: TDE = time-dependent effect

IC50 ([1]; Homo sapiens, SK-OV-3, 24 h, read-out: IC50) [µM]	IC50 ([1]; sk-ov-3)	IC50 [2] [µM]	IC50 [3] [µM]	IC50 [4]	IC50 ([4]; read-out: IC50) [µM]	Compound	Activity (SK-OV-3 [5])	Activity (SK-OV-3 [6])	Activity (SK-OV-3 [7])
28	Dose-dependent effect	76	71	Dose-dependent effect	24	CCCCCCCC/C=C\CCCCCCCC(=O)NCCO [OLEOYLETHANOLAMIDE]	–	–	–
–	–	–	–	–	–	CCCCCCCCCCCCCCCC(=O)N[C@@H](CO)[C@H](O)CCOc1ccc2ccc(=O)oc2c1	Active	tde	tde
